Reference: the supplement of paper PMC10627819

How the values were obtained:
S. aureus DSM 20231 [1] = assay: fitness (endpoint OD595 vs no drug) (fraction); higher = more growth
Outline: (§1)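 Cultures at OD595 0.01 were dispensed into 384-well plates in TSB, LB Lennox or CY and incubated at 37 °C. Every 30 min for 14 h, OD595 was read and corrected by the first reading. Fitness is the optical density at entry into stationary phase relative to the robust mean of no-drug control wells, capped at 1.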

S. aureus Newman [2] = assay: as above
Outline: as §1

S. pneumoniae D39V [3] = assay: as above
Outline: as §1

B. subtilis 168 = assay: Bliss interaction score (quartile over a dose matrix) (fitness difference); higher = more antagonism (negative = synergy)
Outline: (§2)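 Values were capped at 1 after dividing OD595 at stationary-phase entry by the plate's robust no-drug mean. This ratio is fitness, and single-drug fitness was inferred from the combination data. The Bliss score is observed minus product-expected fitness, given as quartiles over technical, biological and donor/recipient replicates.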

S. aureus DSM 20231 [4] = assay: as above
Outline: as §2

S. aureus Newman [5] = assay: as above
Outline: as §2

S. pneumoniae D39V [6] = assay: as above
Outline: as §2
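Wherever Bliss interaction score (quartile over a dose matrix) is given: first quartile when negative (synergy) and third quartile when positive (antagonism).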

O=C(O[C@@H]1Cc2c(O)cc(O)cc2O[C@@H]1c1cc(O)c(O)c(O)c1)c1cc(O)c(O)c(O)c1 [EGCG] + Cn1nnc(-c2ccc(-c3ccc(N4C[C@H](CO)OC4=O)cc3F)cn2)n1 [Tedizolid]
fitness
Settings	partner 0.03125 µg/mL	partner 0.0625 µg/mL	partner 0.125 µg/mL	partner 0.25 µg/mL	partner 0.5 µg/mL
S. aureus DSM 20231 [1], first compound 12.5 µg/mL	–	0.865	0.734	0.401	–
S. aureus DSM 20231 [1], first compound 25 µg/mL	–	0.762	0.783	0.569	–
S. aureus DSM 20231 [1], first compound 50 µg/mL	–	0.805	0.714	0.326	–
S. aureus Newman [2], first compound 12.5 µg/mL	–	0.735	0.673	0.329	–
S. aureus Newman [2], first compound 25 µg/mL	–	0.783	0.679	–	–
S. aureus Newman [2], first compound 50 µg/mL	–	0.745	0.653	–	–
S. pneumoniae D39V [3], first compound 12.5 µg/mL	0.913	0.925	–	0.308	0.194
S. pneumoniae D39V [3], first compound 25 µg/mL	0.974	0.94	0.718	0.328	0.107
S. pneumoniae D39V [3], first compound 50 µg/mL	0.993	0.959	0.791	–	0.262

Settings	Bliss interaction score
B. subtilis 168	0.0863
S. aureus DSM 20231 [4]	0.11
S. aureus Newman [5]	-0.0709
S. pneumoniae D39V [6]	-0.0687

COc1c(N2C[C@@H]3CCCN[C@@H]3C2)c(F)cc2c(=O)c(C(=O)O)cn(C3CC3)c12 [Moxifloxacin] + CN[C@H](CC(C)C)C(=O)N[C@H]1C(=O)N[C@@H](CC(N)=O)C(=O)N[C@H]2C(=O)N[C@H]3C(=O)N[C@H](C(=O)N[C@H](C(=O)O)c4cc(O)cc(O)c4-c4cc3ccc4O)[C@H](O)c3ccc(c(Cl)c3)Oc3cc2cc(c3O[C@@H]2O[C@H](CO)[C@@H](O)[C@H](O)[C@H]2O[C@H]2C[C@](C)(N)[C@H](O)[C@H](C)O2)Oc2ccc(cc2Cl)[C@H]1O [Vancomycin]
Settings	fitness
S. aureus DSM 20231 [1], first compound 0.0075 µg/mL, partner 0.1875 µg/mL	0.818
S. aureus DSM 20231 [1], first compound 0.0075 µg/mL, partner 0.375 µg/mL	0.854
S. aureus DSM 20231 [1], first compound 0.0075 µg/mL, partner 0.75 µg/mL	0.853
S. aureus DSM 20231 [1], first compound 0.015 µg/mL, partner 0.1875 µg/mL	0.745
S. aureus DSM 20231 [1], first compound 0.015 µg/mL, partner 0.375 µg/mL	0.761
S. aureus DSM 20231 [1], first compound 0.015 µg/mL, partner 0.75 µg/mL	0.84
S. aureus DSM 20231 [1], first compound 0.03 µg/mL, partner 0.1875 µg/mL	0.667
S. aureus DSM 20231 [1], first compound 0.03 µg/mL, partner 0.375 µg/mL	0.689
S. aureus DSM 20231 [1], first compound 0.03 µg/mL, partner 0.75 µg/mL	0.652
S. aureus Newman [2], first compound 0.0075 µg/mL, partner 0.1875 µg/mL	0.768
S. aureus Newman [2], first compound 0.0075 µg/mL, partner 0.375 µg/mL	0.75
S. aureus Newman [2], first compound 0.0075 µg/mL, partner 0.75 µg/mL	0.768
S. aureus Newman [2], first compound 0.015 µg/mL, partner 0.75 µg/mL	0.518
S. aureus Newman [2], first compound 0.03 µg/mL, partner 0.375 µg/mL	0.0717
S. aureus Newman [2], first compound 0.03 µg/mL, partner 0.75 µg/mL	0.0889
S. pneumoniae D39V [3], first compound 0.0037 µg/mL, partner 0.03125 µg/mL	0.881
S. pneumoniae D39V [3], first compound 0.005 µg/mL, partner 0.125 µg/mL	0.909
S. pneumoniae D39V [3], first compound 0.0075 µg/mL, partner 0.03125 µg/mL	0.908
S. pneumoniae D39V [3], first compound 0.0075 µg/mL, partner 0.0625 µg/mL	0.853
S. pneumoniae D39V [3], first compound 0.0075 µg/mL, partner 0.125 µg/mL	0.753
S. pneumoniae D39V [3], first compound 0.01 µg/mL, partner 0.125 µg/mL	0.92
S. pneumoniae D39V [3], first compound 0.015 µg/mL, partner 0.03125 µg/mL	0.897
S. pneumoniae D39V [3], first compound 0.015 µg/mL, partner 0.0625 µg/mL	0.848
S. pneumoniae D39V [3], first compound 0.015 µg/mL, partner 0.125 µg/mL	0.689
S. pneumoniae D39V [3], first compound 0.02 µg/mL, partner 0.125 µg/mL	0.913

fitness, S. aureus DSM 20231 [1], one replicate
Settings	partner 0.1875 µg/mL	partner 0.375 µg/mL	partner 0.75 µg/mL
first compound 0.06 µg/mL	0.688	0.694	0.704
first compound 0.12 µg/mL	0.46	0.455	0.46

Settings	Bliss interaction score
B. subtilis 168	0.031
S. aureus DSM 20231 [4]	-0.0583
S. aureus Newman [5]	-0.0617
S. pneumoniae D39V [6]	0.0942

COc1c(N2C[C@@H]3CCCN[C@@H]3C2)c(F)cc2c(=O)c(C(=O)O)cn(C3CC3)c12 [Moxifloxacin] + Cn1nnc(-c2ccc(-c3ccc(N4C[C@H](CO)OC4=O)cc3F)cn2)n1 [Tedizolid]
fitness
Settings	partner 0.03125 µg/mL	partner 0.0625 µg/mL	partner 0.125 µg/mL	partner 0.25 µg/mL	partner 0.5 µg/mL
S. aureus DSM 20231 [1], first compound 0.0075 µg/mL	–	0.813	0.765	0.411	–
S. aureus DSM 20231 [1], first compound 0.015 µg/mL	–	0.755	0.704	0.453	–
S. aureus DSM 20231 [1], first compound 0.03 µg/mL	–	0.682	0.7	0.653	–
S. aureus Newman [2], first compound 0.0075 µg/mL	–	0.755	0.737	0.41	–
S. aureus Newman [2], first compound 0.015 µg/mL	–	0.587	0.581	0.291	–
S. aureus Newman [2], first compound 0.03 µg/mL	–	–	0.343	0.178	–
S. pneumoniae D39V [3], first compound 0.0037 µg/mL	0.887	0.877	0.741	–	–
S. pneumoniae D39V [3], first compound 0.005 µg/mL	–	–	0.851	0.8	0.441
S. pneumoniae D39V [3], first compound 0.0075 µg/mL	0.904	0.871	0.761	–	–
S. pneumoniae D39V [3], first compound 0.01 µg/mL	–	–	0.857	0.775	0.466
S. pneumoniae D39V [3], first compound 0.015 µg/mL	0.897	0.822	0.761	–	–
S. pneumoniae D39V [3], first compound 0.02 µg/mL	–	–	0.842	0.778	0.49

fitness, S. aureus DSM 20231 [1], one replicate
Settings	partner 0.0625 µg/mL	partner 0.125 µg/mL	partner 0.25 µg/mL
first compound 0.06 µg/mL	0.67	0.69	0.727
first compound 0.12 µg/mL	0.511	0.539	0.595

Settings	Bliss interaction score
B. subtilis 168	-0.0253
S. aureus DSM 20231 [4]	0.103
S. aureus Newman [5]	0.0881
S. pneumoniae D39V [6]	-0.0629
